This note sets out measurements from patent US11814444B2, “Cyclic polypeptides for PCSK9 inhibition” (Ra Pharmaceuticals, Inc., priority 2018, dated 2023).

Numbered stars: 1 amine (or outer) side, 2 acyl side, 3 side chain; on linkers, the order of the positions; unused ones are H or OH. Bridge positions count the residues as written; N and C are the ends. Square brackets hold non-standard residues; d marks the D form. Peptide text beside a SMILES is read from it. Pyridine(2,6-diCH2) = c1cc(C[*:1])nc(C[*:2])c1; Trp(7-aza) = N[C@@H](Cc1c[nH]c2ncccc12)C(=O)O; X8 = O=C([C@H](Cc1ccc2[nH]ncc2c1)N[*:1])[*:2]; NMePhe(4-F) = CN[C@@H](Cc1ccc(F)cc1)C(=O)O; Phe(4-F) = N[C@@H](Cc1ccc(F)cc1)C(=O)O; mXylylene = c1cc(C[*:1])cc(C[*:2])c1; pXylylene = c1cc(C[*:2])ccc1C[*:1]; Ala(cPr) = N[C@@H](CC1CC1)C(=O)O; 2Pal = N[C@@H](Cc1ccccn1)C(=O)O; 3Pal = N[C@@H](Cc1cccnc1)C(=O)O; 4Pal = N[C@@H](Cc1ccncc1)C(=O)O; Aad = N[C@@H](CCCC(=O)O)C(=O)O; Tle = CC(C)(C)[C@H](N)C(=O)O; S5 = C=CCCC[C@](C)(N)C(=O)O; Nva = CCC[C@H](N)C(=O)O; Aib = CC(C)(N)C(=O)O; Mpa = O=C(O)CCS

The target of one experiment is PCSK9 (Homo sapiens, UniProt Q8NBP7). Briefly: PCSK9 Alexa FRET Standard assay (displacement of AlexaFluor647 tagged cyclic peptide Reagent A). In kind it is binding. The following applies: 0.5 nM PCSK9, 20 nM AF cyclic peptide Reagent A. The procedure:
A solution containing 1 nM biotinylated PCSK9+2.5 nM Lance Streptavidin Europium (Strep-Eu) was made in 50 mM HEPES pH 7.4, 0.15 M NaCl, 5 mM CaCl2), 0.01% BSA, and 0.01% Surfactant P20. A separate solution containing 40 nM of the AlexaFluor tagged cyclic peptide was made in the same buffer system. An Echo was used to transfer 0.750 ul of compound to an assay plate followed by the addition of 15 ul of PCSK9+Stept-Eu and 15 ul of AF peptide. The final assay volume was 30.750 ul containing 0.5 nM PCSK9, 1.25 nM Strep-Eu, and 20 nM AF cyclic peptide. The reaction was incubated at room temperature for at least two hours prior to fluorescence measurements using an Envision Multilabel Reader. IC50 values were determined by fitting data to a sigmoidal dose-response curve using nonlinear regression. Ki was then calculated from the IC50 and the KD of AF cyclic peptide. Counts (B-counts) of the europium-labeled PCSK9 were followed to observe if compounds were […]. A fall off of the B-counts likely indicated a false positive of inhibition. Data from this procedure was reported as “A=‘numerical value’ (nanomolar)”

Experiment [1] addresses human PCSK9 / human LDLR EGFa domain interaction (Homo sapiens, UniProt Q8NBP7). Briefly: TR-FRET assay of inhibition of the PCSK9-LDLR protein-protein interaction. Format: binding. The following applies: 20 nM avitag-biotinylated human PCSK9, 20 nM his-tagged human LDLR EGFa domain, 2 hours, room temperature. Put shortly: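 Half-maximal inhibitory concentrations came from 4-parameter fits of dose-response data. Proteins: biotinylated PCSK9, His-tagged LDLR EGFa, 20 nM each; labels 5 nM; 2 h, room temperature; buffer 50 mM HEPES, 150 mM NaCl, 5 mM CaCl2.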

Sequence of PCSK9 (Q8NBP7 153-692): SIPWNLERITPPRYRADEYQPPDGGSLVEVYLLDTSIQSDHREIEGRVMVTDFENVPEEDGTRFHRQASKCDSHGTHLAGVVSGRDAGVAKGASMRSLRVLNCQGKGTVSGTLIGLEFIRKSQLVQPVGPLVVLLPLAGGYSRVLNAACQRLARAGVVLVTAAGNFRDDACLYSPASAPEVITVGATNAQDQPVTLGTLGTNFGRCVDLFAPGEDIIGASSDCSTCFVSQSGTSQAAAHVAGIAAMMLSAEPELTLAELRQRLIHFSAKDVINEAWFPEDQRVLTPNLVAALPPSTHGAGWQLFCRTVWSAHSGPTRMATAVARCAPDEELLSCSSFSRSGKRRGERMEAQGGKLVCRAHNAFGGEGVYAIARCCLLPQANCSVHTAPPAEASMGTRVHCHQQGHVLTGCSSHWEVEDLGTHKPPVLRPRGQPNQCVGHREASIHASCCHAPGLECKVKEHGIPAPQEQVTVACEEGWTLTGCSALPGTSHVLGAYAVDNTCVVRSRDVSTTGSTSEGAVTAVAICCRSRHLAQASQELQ
Sequence of human PCSK9 / human LDLR EGFa domain interaction (Q8NBP7 153-692): as above
Sequence of human PCSK9 / human LDLR EGFa domain interaction (Q8NBP7 31-152 partner limits assumed): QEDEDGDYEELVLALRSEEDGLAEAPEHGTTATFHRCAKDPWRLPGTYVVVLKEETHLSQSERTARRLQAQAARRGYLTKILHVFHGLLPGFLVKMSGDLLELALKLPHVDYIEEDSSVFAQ

For `C=CCCC[C@]1(C)NC(=O)[C@H](CCC)NC(=O)[C@H](Cc2ccc(O)cc2)NC(=O)[C@H](C)NC(=O)C(C)(C)NC(=O)[C@H](Cc2c[nH]c3ncccc23)NC(=O)[C@H]([C@@H](C)O)NC(=O)[C@@H]2CCCN2C(=O)[C@H](Cc2ccc(O)cc2)NC(=O)[C@H](C(C)(C)C)NC(=O)[C@@H](NC(C)=O)CCCC(=O)NCCCC[C@@H](C(N)=O)NC1=O` [Compound 053] (Ac-[Aad][Tle]YPT[Trp(7-aza)][Aib]AY[Nva][S5]K-NH2; lactam 1-12), the IC50 on PCSK9 fell in the range of 1 to 21 µM; in experiment [1] it was 21 to 50 µM.
In the same order, the values of `CCC[C@H](NC(=O)[C@@H](NC(=O)[C@@H](NC(=O)[C@H](Cc1ccc(O)cc1)NC(=O)[C@@H]1CSCc2cccc(n2)CSC[C@H](NC(=O)[C@@H](NC(=O)[C@H](CCC)NC(=O)[C@H](CCCCN)NC(C)=O)[C@@H](C)CC)C(=O)N[C@@H](Cc2ccc(O)cc2)C(=O)NCC(=O)NCC(=O)N[C@@H](CC(=O)O)C(=O)N1)[C@@H](C)CC)[C@@H](C)CC)C(N)=O` [Compound 055] (Ac-K[Nva]ICYGGDCYII[Nva]-NH2; linker 4-9 via Pyridine(2,6-diCH2)) are 0.001 to 0.1 µM and 0.1 to 1 µM.
Take `CCC[C@H](NC(C)=O)C(=O)N[C@H]1CSCc2cccc(c2)CSC[C@@H](C(N)=O)NC(=O)[C@H]([C@@H](C)O)NC(=O)[C@H](CCC)NC(=O)[C@H](Cc2c[nH]c3ncccc23)NC(=O)[C@H](CCC(=O)O)NC(=O)[C@H](CCC)NC(=O)[C@H](Cc2c[nH]c3ncccc23)NC(=O)[C@H]([C@@H](C)O)NC(=O)[C@H](Cc2c[nH]cn2)NC(=O)[C@H](Cc2ccc(O)cc2)NC(=O)[C@H](C(C)(C)C)NC1=O` [Compound 243] (Ac-[Nva]C[Tle]YHT[Trp(7-aza)][Nva]E[Trp(7-aza)][Nva]TC-NH2; linker 2-13 via mXylylene): the IC50 on PCSK9 was 50 to 100 µM.
The same measure, in the same setting: the value for `CC(=O)N[C@H]1CSCc2cccc(c2)CSC[C@H](C(N)=O)NC(=O)[C@H]([C@@H](C)O)NC(=O)[C@H](C)NC(=O)[C@H](Cc2ccc(O)cc2)NC(=O)[C@H](CCC(=O)O)NC(=O)[C@H](C)NC(=O)[C@H](Cc2c[nH]c3ncccc23)NC(=O)[C@H]([C@@H](C)O)NC(=O)[C@H](Cc2c[nH]cn2)NC(=O)[C@H](Cc2ccc(O)cc2)NC(=O)[C@H](C(C)(C)C)NC1=O` [Compound 245] (Ac-C[Tle]YHT[Trp(7-aza)]AEYAT[dC]-NH2; linker 1-12 via mXylylene) was 50 to 100 µM; that for `CCC[C@@H]1NC(=O)[C@H](Cc2ccc(O)cc2)NC(=O)[C@H](CCC(=O)O)NC(=O)[C@H](Cc2c[nH]c3ncccc23)NC(=O)[C@H]([C@@H](C)O)NC(=O)[C@H](Cc2c[nH]cn2)NC(=O)[C@H](Cc2ccc(O)cc2)NC(=O)[C@H](C(C)(C)C)NC(=O)CCSCc2cccc(c2)CSC[C@@H](C(N)=O)NC(=O)[C@H]([C@@H](C)O)NC1=O` [Compound 248] ([Mpa][Tle]YHT[Trp(7-aza)]EY[Nva]TC-NH2; linker 1-11 via mXylylene) was 50 to 100 µM.
The same measure, in the same setting: the value for `CCC[C@@H]1NC(=O)[C@H](Cc2ccc(O)cc2)NC(=O)[C@H](CCC(=O)O)NC(=O)[C@H](CCC)NC(=O)[C@H]([C@@H](C)O)NC(=O)[C@H](Cc2c[nH]cn2)NC(=O)[C@H](Cc2ccc(O)cc2)NC(=O)[C@H](C(C)(C)C)NC(=O)CCSCc2ccc(cc2)CSC[C@@H](C(N)=O)NC(=O)[C@H]([C@@H](C)O)NC1=O` [Compound 251] ([Mpa][Tle]YHT[Nva]EY[Nva]TC-NH2; linker 1-11 via pXylylene) was 50 to 100 µM.
On the same count and under the same terms, the value for `CCC[C@@H]1NC(=O)[C@H](Cc2c[nH]c3ncccc23)NC(=O)[C@H]([C@@H](C)O)NC(=O)[C@H](Cc2c[nH]cn2)NC(=O)[C@H](Cc2ccc(O)cc2)NC(=O)[C@H](C(C)(C)C)NC(=O)CCSCc2cccc(c2)CSC[C@@H](C(N)=O)NC(=O)[C@H]([C@@H](C)O)NC(=O)[C@H](CCC)NC(=O)[C@H](Cc2ccccc2)NC(=O)[C@H](CCC(=O)O)NC1=O` [Compound 256] ([Mpa][Tle]YHT[Trp(7-aza)][Nva]EF[Nva]TC-NH2; linker 1-12 via mXylylene) was 1 to 21 µM.
On PCSK9, `CCC[C@@H]1NC(=O)[C@H](Cc2c[nH]c3ncccc23)NC(=O)[C@H]([C@@H](C)O)NC(=O)[C@H](Cc2c[nH]cn2)NC(=O)[C@H](Cc2ccc(O)cc2)NC(=O)[C@H](C(C)(C)C)NC(=O)CCSCc2cccc(c2)CSC[C@@H](C(N)=O)NC(=O)[C@H]([C@@H](C)O)NC(=O)[C@H](CCC)NC(=O)[C@H](Cc2ccc3[nH]ncc3c2)NC(=O)[C@H](CCC(=O)O)NC1=O` [Compound 257] ([Mpa][Tle]YHT[Trp(7-aza)][Nva]E[X8][Nva]TC-NH2; linker 1-12 via mXylylene) registered an IC50 of 50 to 100 µM.
On the same count and under the same terms, in the case of `CCC[C@H](NC(C)=O)C(=O)N[C@H]1CSCc2cccc(c2)CSC[C@@H](C(N)=O)NC(=O)[C@H]([C@@H](C)O)NC(=O)[C@H](CCC)NC(=O)[C@H](Cc2ccc(O)cc2)NC(=O)[C@H](C)NC(=O)[C@H](CCC)NC(=O)[C@H](Cc2c[nH]c3ncccc23)NC(=O)[C@H]([C@@H](C)O)NC(=O)[C@H](Cc2cnc[nH]2)NC(=O)[C@H](Cc2ccc(O)cc2)NC(=O)[C@H](C(C)(C)C)NC1=O` [Compound 258] (Ac-[Nva]C[Tle]YHT[Trp(7-aza)][Nva]AY[Nva]TC-NH2; linker 2-13 via mXylylene) it was 50 to 100 µM; in that of `CCC[C@@H]1NC(=O)[C@H](Cc2c[nH]c3ncccc23)NC(=O)[C@H]([C@@H](C)O)NC(=O)[C@H](Cc2c[nH]cn2)NC(=O)[C@H](Cc2ccc(O)cc2)NC(=O)[C@H](C(C)(C)C)NC(=O)CCSCc2cccc(c2)CSC[C@@H](C(N)=O)NC(=O)[C@H]([C@@H](C)O)NC(=O)[C@H](CC2CC2)NC(=O)[C@H](Cc2ccc(O)cc2)NC(=O)[C@H](CCC(=O)O)NC1=O` [Compound 262] ([Mpa][Tle]YHT[Trp(7-aza)][Nva]EY[Ala(cPr)]TC-NH2; linker 1-12 via mXylylene), 1 to 21 µM; in that of `CCC[C@@H]1NC(=O)[C@H](Cc2c[nH]c3ncccc23)NC(=O)[C@H]([C@@H](C)O)NC(=O)[C@H](Cc2c[nH]cn2)NC(=O)[C@H](Cc2ccc(O)cc2)NC(=O)[C@H](C(C)(C)C)NC(=O)CCSCc2cccc(c2)CSC[C@@H](C(N)=O)NC(=O)[C@H]([C@@H](C)O)NC(=O)[C@H](CCC)NC(=O)[C@H](Cc2ccc(F)cc2)NC(=O)[C@H](CCC(=O)O)NC1=O` [Compound 266] ([Mpa][Tle]YHT[Trp(7-aza)][Nva]E[Phe(4-F)][Nva]TC-NH2; linker 1-12 via mXylylene), 1 to 21 µM.
On the same count and under the same terms, in the case of `CCC[C@@H]1NC(=O)[C@H](Cc2c[nH]c3ncccc23)NC(=O)[C@H]([C@@H](C)O)NC(=O)[C@H](Cc2c[nH]cn2)NC(=O)[C@H](Cc2ccc(O)cc2)NC(=O)[C@H](C(C)(C)C)NC(=O)CCSCc2cccc(c2)CSC[C@@H](C(N)=O)NC(=O)[C@H]([C@@H](C)O)NC(=O)[C@H](CCC)NC(=O)[C@H](Cc2ccc(F)cc2)N(C)C(=O)[C@H](CCC(=O)O)NC1=O` [Compound 267] ([Mpa][Tle]YHT[Trp(7-aza)][Nva]E[NMePhe(4-F)][Nva]TC-NH2; linker 1-12 via mXylylene) it was 50 to 100 µM; in that of `CCC[C@@H]1NC(=O)[C@H](Cc2ccc(O)cc2)NC(=O)[C@H](CCC(=O)O)NC(=O)C(C)(C)NC(=O)[C@H](Cc2c[nH]c3ncccc23)NC(=O)[C@H]([C@@H](C)O)NC(=O)[C@H](Cc2c[nH]cn2)NC(=O)[C@H](Cc2ccc(O)cc2)NC(=O)[C@H](C(C)(C)C)NC(=O)CCSCc2cccc(c2)CSC[C@@H](C(N)=O)NC(=O)[C@H]([C@@H](C)O)NC1=O` [Compound 268] ([Mpa][Tle]YHT[Trp(7-aza)][Aib]EY[Nva]TC-NH2; linker 1-12 via mXylylene), 0.1 to 1 µM.
On the same count and under the same terms, the value for `CCC[C@@H]1NC(=O)[C@H](Cc2ccncc2)NC(=O)[C@H]([C@@H](C)O)NC(=O)[C@H](Cc2c[nH]cn2)NC(=O)[C@H](Cc2ccc(O)cc2)NC(=O)[C@H](C(C)(C)C)NC(=O)CCSCc2cccc(c2)CSC[C@@H](C(N)=O)NC(=O)[C@H]([C@@H](C)O)NC(=O)[C@H](CCC)NC(=O)[C@H](Cc2ccc(O)cc2)NC(=O)[C@H](CCC(=O)O)NC1=O` [Compound 270] ([Mpa][Tle]YHT[4Pal][Nva]EY[Nva]TC-NH2; linker 1-12 via mXylylene) was 50 to 100 µM; that for `CCC[C@@H]1NC(=O)[C@H](Cc2ccccn2)NC(=O)[C@H]([C@@H](C)O)NC(=O)[C@H](Cc2c[nH]cn2)NC(=O)[C@H](Cc2ccc(O)cc2)NC(=O)[C@H](C(C)(C)C)NC(=O)CCSCc2cccc(c2)CSC[C@@H](C(N)=O)NC(=O)[C@H]([C@@H](C)O)NC(=O)[C@H](CCC)NC(=O)[C@H](Cc2ccc(O)cc2)NC(=O)[C@H](CCC(=O)O)NC1=O` [Compound 271] ([Mpa][Tle]YHT[2Pal][Nva]EY[Nva]TC-NH2; linker 1-12 via mXylylene) was 50 to 100 µM; that for `CCC[C@@H]1NC(=O)[C@H](Cc2cccnc2)NC(=O)[C@H]([C@@H](C)O)NC(=O)[C@H](Cc2c[nH]cn2)NC(=O)[C@H](Cc2ccc(O)cc2)NC(=O)[C@H](C(C)(C)C)NC(=O)CCSCc2cccc(c2)CSC[C@@H](C(N)=O)NC(=O)[C@H]([C@@H](C)O)NC(=O)[C@H](CCC)NC(=O)[C@H](Cc2ccc(O)cc2)NC(=O)[C@H](CCC(=O)O)NC1=O` [Compound 272] ([Mpa][Tle]YHT[3Pal][Nva]EY[Nva]TC-NH2; linker 1-12 via mXylylene) was 50 to 100 µM.
